Experimental data reported in US3966793A (priority 1964, dated 1976).
Where two headings read alike, the source gives them in different places.

Key:
[1] = system: mouse; assay: Spontaneous motor activity in the mouse; type: in vivo; settings: for ED50: Mus musculus, read-out: Spontaneous motor activity, 50% effective dose
Text: (§1) 6. Spontaneous motor activity in the rat and mouse and provoked motor activity
(§2) The effect of drugs on voluntary movements of animals can be studied statistically by methods, the details of which will not be discussed here. The mouse, which is an extremely lively animal and moves about a great deal, is particularly suitable for this type of experiment.

[2] = system: mice; assay: Exploration test (mice); type: in vivo; settings: for ED50: Mus musculus, read-out: Exploration, 50% effective dose
Experimental: 5. Exploration test (mice)
This extremely simple test consists in placing a mouse at the center of a floor pierced with holes and in noting how many holes the mouse explores in 5 minutes. This test is carried out in a room in which complete silence is observed and which contains no person except the experimenter who is seated and still. It appeals to the curiosity of the animals. The doses of the compounds employed are, however, very small and considerably less than those required to impair movement. This simple test makes it possible to observe whether the compounds assayed produce a more or less pronounced lack of interest in the environment and it gives information which is interesting from the clinical point of view with regard to the treatment of anxiety and restlessness.

[3] = system: rats; assay: Double box conditioning test (R); type: in vivo; settings: rat
Text: The test used consists in educating rats to avoid an electric current passed through the floor of a cage of two compartments when they change compartments. The animal is first warned by a lamp which lights up in the compartment through which the current is passing while the other is in relative darkness.
This test, which requires more or less daily training at the rate of 50 times for each rat, makes it possible to follow the animals and note their progress. The performances realized at the end of a certain time (3 weeks to 1 month of training) are fairly constant, the percentage of errors made by adequately gifted subjects being less than 10 and very often even zero.
One would imagine that disturbances produced in these performances which call upon the memory of animals would be of great importance for the choice of a new medicament. A deconditioning drug of sufficient intensity could have the result of partly depriving the patient of the idea of danger and would consequently require special surveillance of the sick persons.

[4] = system: mice; assay: Traction test (mice), myorelaxant activity; type: in vivo; settings: for ED50: Mus musculus, read-out: Traction, 50% effective dose
Text: This consists in observing when the treated animals are capable of retrieving a rod grasped by the front paws only. Inability to carry this out was interpreted as a sign of myorelaxant activity.

[5] = system: mice; assay: Anti-convulsant activity (electric shock) (mice); type: in vivo; settings: for ED50: Mus musculus, read-out: Electric shock, 50% effective dose
Text: 4. Anti-convulsant activity (electric shock) (mice)
The test consists in determining the intensity of the electric current required to produce a fatal shock in a batch of test animals.
Certain preventively administered compounds effectively protect a certain percentage of animals subjected to an electric current of an intensity which is fatal to untreated animals.

[6] = system: rat; assay: Spontaneous motor activity in the rat; type: in vivo; settings: for ED50: Rattus norvegicus, read-out: Spontaneous motor activity, 50% effective dose
Text: as §1, §2

[7] = system: rat; assay: Benzedrine provoked motor activity (R); type: in vivo; settings: PO, read-out: Benzedrine provoked motor activity, 50% effective dose
Text: as §1, §2
(§3) Moreover, this spontaneous mobility can be exacerbated by preventive administration to the animals of certain substances such as benzedrine, mescaline and ritaline.
(§4) The experimental results obtained by these methods give valuable information for clinical purposes with regard to the treatment of ambulatory psychomotor crises.

[8] = system: mice; assay: Anti-convulsant activity (anti-pentetrazole) (mice); type: in vivo; settings: mouse, pentetrazole 125 mg./kg. IP, read-out: Anti-pentetrazole, 50% effective dose
Experimental: 3. Anti-convulsant activity (anti-pentetrazole) (mice)
Pentetrazole, injected intraperitoneally in a dose of 125 mg./kg. produces fatal convulsions in 100% of the animals.
Certain compounds exert a protective action preventing convulsions and permitting survival.

[9] = system: mouse; assay: Benzedrine provoked motor activity (M); type: in vivo; settings: PO, read-out: Benzedrine provoked motor activity, 50% effective dose
Text: as §1, §2, §3, §4

[10] = system: mice; assay: Balance test: rotating rod (mice) (Equilibration); type: in vivo; settings: for ED50: Mus musculus, read-out: Equilibration, 50% effective dose
Text: 2. Balance test: rotating rod (mice)
This test consists in observing whether the treated animals are capable of maintaining their balance on a horizontal rod kept in rotation.
Numerous neuroleptic compounds or tranquilizers disturb the equilibration reflex.

[11] = system: male rat; assay: Combativeness (rat); type: in vivo; settings: for ED50: rat, read-out: Combativeness, 50% effective dose
Text: It is possible to make a male rat aggressive towards another male rat enclosed in the same cage by passing an electric current of more or less high voltage through the floor of the cage.
This test, like the preceding one, can obviously give information of clinical value for the treatment of aggression diseases.

[12] = Acute toxicity (M) LD 50; settings: in vivo, mouse
[13] = system: mouse; assay: Potentiation of narcosis (M); type: in vivo; settings: PO, read-out: Narcotic potentiation, 50% effective dose
Text: 12. Potentiation of narcosis
Most psycholeptics are hypnotics in large doses, but many of them can, in small doses, without themselves producing any hypnosis, either prolong the time of sleep obtained with a true hypnotic (for example a barbiturate) or appreciably lower the dose of barbiturate required to obtain sleep.

[14] = system: mouse; assay: Antistrychnine activity; type: in vivo; settings: po, read-out: Anti-strychnine, 50% effective dose
Text: 7. Antistrychnine activity

[15] = system: central nervous system; assay: Pharmacodynamic / central nervous system tests taken together; type: in vivo
Text: A certain number of the compounds described in the present application have been studied with regard to their action on the central nervous system, as psycholeptics, myorrelaxants and tranquilizers. In addition, the acute toxicity has been determined for a number of these compounds.
It has thereby been possible to make quantitative comparisons of the activity of the different compounds for the different tests employed.

[16] = Stability in aqueous solution; type: physicochemical; settings: compound A obtained
[17] = Solubility
[18] = Reaction (pH) of aqueous solution; type: physicochemical
[19] = system: mouse; assay: Morphine excitation (M); type: in vivo; settings: PO, read-out: Morphine excitation, 50% effective dose
Text: In the mouse, the action of morphine is different but also manifested by marked central excitation.

[20] = system: mouse; assay: Mescaline provoked motor activity (M); type: in vivo; settings: PO, read-out: Mescaline provoked motor activity, 50% effective dose
Text: as §1, §2, §3, §4

[21] = system: mouse; assay: Ritaline provoked motor activity (M); type: in vivo; settings: PO, read-out: Ritaline provoked motor activity, 50% effective dose
Text: as §1, §2, §3, §4

[22] = system: cats; assay: Aggressiveness (cat/mouse); type: in vivo; settings: Felis catus, SC, read-out: Aggressiveness, 50% effective dose
Text: 9. Aggressiveness (cat/mouse)
In general, 75 to 80% of cats are aggressive when confronted with white mice. Psycholeptics and tranquilizers may make the cat indifferent and sometimes even amiable to the mouse. Similarly, in the case of cats that are furious and aggressive in relation to humans, diminution or suppression of the instinctive fear and establishment of a climate of confidence are observed.

[23] = system: cat; assay: Morphine crisis (C); type: in vivo; settings: Felis catus, SC, read-out: Morphine crisis, 50% effective dose
Text: In the cat, morphine produces a specific state of excitation with hallucinations which can be attenuated or suppressed by certain psycholeptic drugs.

SMILES | ED50 ([1]; po) | ED50 ([2]; po) | ED50 ([4]; po) | ED50 ([5]; po) | ED50 ([6]; po) | ED50 [7] | ED50 ([8]; PO) | ED50 [9] | ED50 ([10]; po) | ED50 ([11]; PO) | LD50 ([12]; IP) | LD50 ([12]; PO) | ED50 [13] | ED50 [14] | Solubility in water [17] | Reaction / pH of aqueous solution [18] | ED50 [19] | ED50 [20] | ED50 [21] | ED50 [22] | also measured
O=C1CN=C(c2ccccc2)c2cc(Cl)ccc2N1 [Nor-diazepame, 7-Chloro-5-phenyl-2-oxo-2,3-dihydro-1H-benzo[f]-1,4-diazepine, reference compound] | 50 mg/kg | 7.8 mg/kg | 3.5 mg/kg | 9 mg/kg | 50 mg/kg | 100 mg/kg | 2.9 mg/kg | > 20 mg/kg | 8.6 mg/kg | 100 mg/kg |  |  |  |  |  |  |  |  |  |  | Double box conditioning, effect in words [3]: Without effect
O=C([O-])C1N=C(c2ccccc2)c2cc(Cl)ccc2NC1=O.[K+] (stereo not drawn) [4311 CB, 7-Chloro-2,3-dihydro-2-oxo-5-phenyl-1H-benzo[f]-1,4-diazepine-3-carboxylic acid, potassium salt] | 10 mg/kg |  | 1.35 mg/kg |  | 50 mg/kg | 50 mg/kg | 1.65 mg/kg |  | 5 mg/kg | 25 mg/kg | 310 mg/kg | 870 mg/kg | 2 mg/kg | 20 mg/kg | completely soluble in water | substantially neutral reaction | 20 mg/kg | 20 mg/kg |  |  | ED50 ([1]; ip): 25 mg/kg; ED50 ([2]; ip): 5 mg/kg; ED50 ([3]; PO, read-out: Double box conditioning, 50% effective dose): 10 mg/kg; LD50 ([12]; IV): 220 mg/kg; LD50 ([12]; SC): 450 mg/kg; ED50 ([4]; ip): 1.75 mg/kg; ED50 ([5]; ip): 2.6 mg/kg; ED50 ([6]; ip): 25 mg/kg; Activity compared with 4306 ([15]; in vivo): highly active but slightly less so than 4306; Activity, parenteral compared with oral administration ([15]; parenteral vs oral): slightly less when administered parenterally than when administered orally; ED50 ([8]; IP): 2.9 mg/kg; Decarboxylation on heating an aqueous solution [16]: decarboxylated within a few minutes; ED50 ([10]; ip): 4.5 mg/kg; ED50 ([11]; IP): 25 mg/kg
O=C(O)C1N=C(c2ccccc2)c2cc([N+](=O)[O-])ccc2NC1=O.[K+].[K+].[OH-].[OH-] (stereo not drawn) [4335 CB, 7-Nitro-2,3-dihydro-2-oxo-5-phenyl-1H-benzo[f]-1,4-diazepine-3-carboxylic acid, monopotassium salt, monopotassium hydroxide] | 5 mg/kg | 1.8 mg/kg | 1.25 mg/kg | 3.2 mg/kg | 25 mg/kg | 100 mg/kg | 0.44 mg/kg |  | 4.3 mg/kg | 10 mg/kg |  | 560 mg/kg |  | > 20 mg/kg | dissolves completely in water | strongly alkaline in reaction | 50 mg/kg | 20 mg/kg | > 20 mg/kg | 25 mg/kg | Activity in different tests, especially as myorelaxants and anticonvulsants ([15]; different tests of Table VI): extremely active in different tests; Effect on the faculties of displacement ([15]; in vivo): less effect on the faculties of displacement; ED50 [23]: 25 mg/kg; Effect in diminishing aggressiveness ([11]; test for combativeness): marked effect in diminishing aggressiveness
O=C(O)C1N=C(c2ccccc2)c2cc(Cl)ccc2NC1=O.[K+].[K+].[OH-].[OH-] (stereo not drawn) [4306 CB, 7-Chloro-2,3-dihydro-2-oxo-5-phenyl-1H-benzo[f]-1,4-diazepine-3-carboxylic acid, monopotassium salt, monopotassium hydroxide] | 5 mg/kg | 4 mg/kg | 1.1 mg/kg | 4.6 mg/kg | < 25 mg/kg | > 100 mg/kg | 1.7 mg/kg | > 20 mg/kg | 14 mg/kg | < 25 mg/kg | 250 mg/kg | 700 mg/kg | 2 mg/kg | 25 mg/kg | completely soluble in water | strongly alkaline in reaction | 50 mg/kg | 20 mg/kg | 20 mg/kg | 25 mg/kg | Spontaneous motor activity, 50% effective dose ([1]; PO, listed as Ca 2053): 10 mg/kg; Exploration, 50% effective dose ([2]; mouse, PO, listed as Ca 2053): 6.25 mg/kg; Traction, 50% effective dose ([4]; mouse, PO, listed as Ca 2053): 1.25 mg/kg; Electric shock, 50% effective dose ([5]; mouse, PO, listed as Ca 2053): 3 mg/kg; Spontaneous motor activity, 50% effective dose ([6]; PO, listed as Ca 2053): 25 mg/kg; Activity compared with diazepame ([15]; most of the tests): highly active and in most of the tests, it is at least equal and frequently superior to diazepame; Pharmacodynamic comparison of products obtained by the two methods ([15]; saponification of benzodiazepine ester or of imine diester): pharmacodynamic studies confirm the identity of the products obtained by the two methods; ED50 [23]: 25 mg/kg; Equilibration, 50% effective dose ([10]; mouse, PO, listed as Ca 2053): 9.6 mg/kg
